Laboratory results from ChEMBL document CHEMBL3046846, “Synthesis of N-Alkyl-2, 3-dimethyl-5-[N-(5-halo-2-methylphenyl)carbamoyl]-6-pyrazinecarboxamides and Their Herbicidal Activity” (J Pestic Sci, 1997).

How the values were obtained:
[1] = test system: Abutilon theophrasti; assay: Herbicidal activity against Abutilon theophrasti (velvetleaf) at 140 g/ha after 2 weeks; format: functional
[2] = test system: Triticum aestivum; assay: Herbicidal activity against Triticum aestivum (wheat) at 140 g/ha after 2 weeks; format: organism-based; settings: in vivo, 336 h
[3] = test system: Xanthium strumarium; assay: Herbicidal activity against Xanthium strumarium (cocklebur) 140 g/ha after 2 weeks; format: functional
[4] = test system: Veronica persica; assay: Herbicidal activity against Veronica persica at 140 g/ha after 2 weeks; format: functional
[5] = test system: Glycine max; assay: Herbicidal activity against Glycine max (soybean) at 140 g/ha after 2 weeks; format: organism-based; settings: in vivo, 336 h
[6] = test system: Avena fatua; assay: Herbicidal activity against Avena fatua at 140 g/ha after 2 weeks; format: functional
[7] = test system: Galium spurium; assay: Herbicidal activity against Galium spurium var. echinospermon (Wally.) Hayek at 140 g/ha after 2 weeks; format: functional
[8] = test system: Echinochloa crus-galli; assay: Herbicidal activity against Echinochloa crus-galli (barnyard grass) at 140 g/ha after 2 weeks; format: functional
[9] = test system: Glycine max; assay: Herbicidal activity against Glycine max (soybean) at 200 g/ha after 2 weeks; format: organism-based; settings: in vivo, 336 h
[10] = test system: Galium spurium; assay: Herbicidal activity against Galium spurium var. echinospermon (Wally.) Hayek at 200 g/ha after 2 weeks; format: functional
[11] = test system: Triticum aestivum; assay: Herbicidal activity against Triticum aestivum (wheat) at 200 g/ha after 2 weeks; format: organism-based; settings: in vivo, 336 h
[12] = test system: Avena fatua; assay: Herbicidal activity against Avena fatua at 200 g/ha after 2 weeks; format: functional
[13] = test system: Abutilon theophrasti; assay: Herbicidal activity against Abutilon theophrasti (velvetleaf) at 200 g/ha after 2 weeks; format: functional
[14] = test system: Xanthium strumarium; assay: Herbicidal activity against Xanthium strumarium (cocklebur) 200 g/ha after 2 weeks; format: functional
[15] = test system: Veronica persica; assay: Herbicidal activity against Veronica persica at 200 g/ha after 2 weeks; format: functional
[16] = test system: Echinochloa crus-galli; assay: Herbicidal activity against Echinochloa crus-galli (barnyard grass) at 200 g/ha after 2 weeks; format: functional
[17] = test system: Glycine max; assay: Herbicidal activity against Glycine max (soybean) at 500 g/ha after 2 weeks; format: organism-based; settings: in vivo, 336 h
[18] = test system: Galium spurium; assay: Herbicidal activity against Galium spurium var. echinospermon (Wally.) Hayek at 500 g/ha after 2 weeks; format: functional
[19] = test system: Echinochloa crus-galli; assay: Herbicidal activity against Echinochloa crus-galli (barnyard grass) at 5000 g/ha after 2 weeks; format: functional
[20] = test system: Xanthium strumarium; assay: Herbicidal activity against Xanthium strumarium (cocklebur) 5000 g/ha after 2 weeks; format: functional
[21] = test system: Avena fatua; assay: Herbicidal activity against Avena fatua at 5000 g/ha after 2 weeks; format: functional
[22] = test system: Echinochloa crus-galli; assay: Herbicidal activity against Echinochloa crus-galli (barnyard grass) at 250 g/ha after 2 weeks; format: functional
[23] = test system: Triticum aestivum; assay: Herbicidal activity against Triticum aestivum (wheat) at 250 g/ha after 2 weeks; format: organism-based; settings: in vivo, 336 h
[24] = test system: Abutilon theophrasti; assay: Herbicidal activity against Abutilon theophrasti (velvetleaf) at 500 g/ha after 2 weeks; format: functional
[25] = test system: Glycine max; assay: Herbicidal activity against Glycine max (soybean) at 250 g/ha after 2 weeks; format: organism-based; settings: in vivo, 336 h
[26] = test system: Galium spurium; assay: Herbicidal activity against Galium spurium var. echinospermon (Wally.) Hayek at 5000 g/ha after 2 weeks; format: functional
[27] = test system: Triticum aestivum; assay: Herbicidal activity against Triticum aestivum (wheat) at 5000 g/ha after 2 weeks; format: ADME, organism-based; settings: in vivo, 336 h
[28] = test system: Veronica persica; assay: Herbicidal activity against Veronica persica at 500 g/ha after 2 weeks; format: functional
[29] = test system: Avena fatua; assay: Herbicidal activity against Avena fatua at 250 g/ha after 2 weeks; format: functional
[30] = test system: Echinochloa crus-galli; assay: Herbicidal activity against Echinochloa crus-galli (barnyard grass) at 500 g/ha after 2 weeks; format: functional
[31] = test system: Avena fatua; assay: Herbicidal activity against Avena fatua at 500 g/ha after 2 weeks; format: functional
[32] = test system: Veronica persica; assay: Herbicidal activity against Veronica persica at 250 g/ha after 2 weeks; format: functional
[33] = test system: Xanthium strumarium; assay: Herbicidal activity against Xanthium strumarium (cocklebur) 500 g/ha after 2 weeks; format: functional
[34] = test system: Abutilon theophrasti; assay: Herbicidal activity against Abutilon theophrasti (velvetleaf) at 5000 g/ha after 2 weeks; format: functional
[35] = test system: Veronica persica; assay: Herbicidal activity against Veronica persica at 5000 g/ha after 2 weeks; format: functional
[36] = test system: Galium spurium; assay: Herbicidal activity against Galium spurium var. echinospermon (Wally.) Hayek at 250 g/ha after 2 weeks; format: functional
[37] = test system: Triticum aestivum; assay: Herbicidal activity against Triticum aestivum (wheat) at 500 g/ha after 2 weeks; format: ADME, organism-based; settings: in vivo, 336 h
[38] = test system: Xanthium strumarium; assay: Herbicidal activity against Xanthium strumarium (cocklebur) 250 g/ha after 2 weeks; format: functional
[39] = test system: Abutilon theophrasti; assay: Herbicidal activity against Abutilon theophrasti (velvetleaf) at 250 g/ha after 2 weeks; format: functional
[40] = test system: Glycine max; assay: Herbicidal activity against Glycine max (soybean) at 5000 g/ha after 2 weeks; format: organism-based; settings: in vivo, 336 h

SMILES	Activity [17]	Activity [18]	Activity [19]	Activity [20]	Activity [21]	Activity [22]	Activity [23]	Activity [24]	Activity [25]	Activity [26]	Activity [27]	Activity [28]	Activity [29]	Activity [30]	Activity [31]	Activity [32]	Activity [33]	Activity [34]	Activity [35]	Activity [36]	further results
CC(C)C1(C)N=C(c2nc3ccccc3cc2C(=O)O)NC1=O (stereo not drawn) [IMAZAQUIN]																					Activity [1]: 30%; Activity [2]: 70%; Activity [3]: 95%; Activity [4]: 50%; Activity [5]: < 10%; Activity [6]: 50%; Activity [7]: 70%; Activity [8]: 30%
CS(=O)(=O)NC(=O)c1cc(Oc2ccc(C(F)(F)F)cc2Cl)ccc1[N+](=O)[O-] [FOMESAFEN]																					Activity [9]: < 10%; Activity [10]: 70%; Activity [11]: 30%; Activity [12]: <10%; Activity [13]: 95%; Activity [14]: 50%; Activity [15]: 95%; Activity [16]: 30%
CCCNC(=O)c1nc(C)c(C)nc1C(=O)Nc1cc(F)ccc1C	< 10%	<10%	30%	95%	10%	<10%	< 10%	30%	< 10%	95%	30%	95%	<10%	10%	<10%	95%	95%	95%	95%	<10%	Activity [37]: < 10%; Activity [38]: 30%; Activity [39]: 30%; Activity [40]: < 10%
CCNC(=O)c1nc(C)c(C)nc1C(=O)Nc1cc(Cl)ccc1C	< 10%	<10%	50%	95%	<10%	<10%	< 10%	<10%	< 10%	30%	10%	70%	<10%	<10%	<10%	<10%	10%	30%	95%	<10%	Activity [37]: < 10%; Activity [38]: <10%; Activity [39]: <10%; Activity [40]: < 10%
CCCNC(=O)c1nc(C)c(C)nc1C(=O)Nc1cc(Cl)ccc1C	< 10%	<10%	50%	30%	<10%	<10%	< 10%	<10%	< 10%	50%	30%	70%	<10%	<10%	<10%	95%	50%	95%	95%	<10%	Activity [37]: < 10%; Activity [38]: <10%; Activity [39]: <10%; Activity [40]: < 10%
CCC(C)NC(=O)c1nc(C)c(C)nc1C(=O)Nc1cc(Cl)ccc1C (racemic)	< 10%	<10%	95%	95%	50%	<10%	< 10%	<10%	< 10%	95%	70%	70%	<10%	10%	<10%	70%	<10%	95%	95%	<10%	Activity [37]: < 10%; Activity [38]: <10%; Activity [39]: <10%; Activity [40]: < 10%
Cc1ccc(F)cc1NC(=O)c1nc(C)c(C)nc1C(=O)NC(C)C	< 10%	<10%	50%	70%	30%	<10%	< 10%	70%	< 10%	70%	30%	95%	<10%	30%	30%	70%	70%	50%	95%	<10%	Activity [37]: 10%; Activity [38]: 10%; Activity [39]: 50%; Activity [40]: < 10%
Cc1ccc(Cl)cc1NC(=O)c1nc(C)c(C)nc1C(=O)NCC(C)C	< 10%	<10%	95%	95%	95%	<10%	< 10%	<10%	< 10%	95%	70%	95%	<10%	30%	<10%	30%	<10%	95%	95%	<10%	Activity [37]: < 10%; Activity [38]: <10%; Activity [39]: <10%; Activity [40]: < 10%
Cc1ccc(Cl)cc1NC(=O)c1nc(C)c(C)nc1C(=O)NC(C)C	< 10%	<10%	70%	95%	50%	<10%	< 10%	<10%	< 10%	95%	30%	95%	<10%	<10%	<10%	50%	50%	95%	95%	<10%	Activity [37]: < 10%; Activity [38]: 50%; Activity [39]: <10%; Activity [40]: < 10%
CC[C@@H](C)NC(=O)c1nc(C)c(C)nc1C(=O)Nc1cc(Cl)ccc1C	< 10%	<10%	95%	95%	30%	<10%	< 10%	<10%	< 10%	95%	30%	95%	<10%	<10%	<10%	70%	<10%	95%	95%	<10%	Activity [37]: < 10%; Activity [38]: <10%; Activity [39]: <10%; Activity [40]: < 10%
